Numbers after ± are expanded uncertainties.
Key:
[1] = 100 kPa, Liquid; for speed of sound: Frequency=2 MHz, Linear variable-path acoustic interferometer; for mass density: Vibrating tube method
[2] = xn = mol fraction of the nth substance listed; details: 100 kPa, Liquid; for speed of sound: Frequency=2 MHz, Linear variable-path acoustic interferometer; for mass density: Vibrating tube method

ClCCCl [1,2-dichloroethane]
[1]
Details	mass density [kg/m3]	speed of sound [m/s]
293.15 K	1253 ± 4	1212.5 ± 3.9
298.15 K	1246 ± 4	1194.2 ± 3.9
303.15 K	1238 ± 4	1174.1 ± 3.9
308.15 K	1231 ± 4	1155.6 ± 3.9

ClCCCl [1,2-dichloroethane] + CCCCCCCCCO
[2], x1 = 1
Details	mass density [kg/m3]	speed of sound [m/s]
293.15 K	1253 ± 4	1212.5 ± 3.9
298.15 K	1246 ± 4	1194.2 ± 3.9
303.15 K	1238 ± 4	1174.1 ± 3.9
308.15 K	1231 ± 4	1155.6 ± 3.9

Cc1ccccc1Cl [2-chlorotoluene]
[1]
Details	mass density [kg/m3]	speed of sound [m/s]
293.15 K	1082 ± 4	1317 ± 4
298.15 K	1077 ± 4	1299.7 ± 4
303.15 K	1073 ± 4	1283.9 ± 4
308.15 K	1068 ± 4	1265.8 ± 4

Cc1cccc(Cl)c1 [3-chlorotoluene]
[1]
Details	mass density [kg/m3]	speed of sound [m/s]
293.15 K	1072 ± 4	1313.8 ± 4
298.15 K	1067 ± 4	1296.5 ± 4
303.15 K	1063 ± 4	1279.5 ± 4
308.15 K	1058 ± 4	1261.2 ± 4

Cc1ccc(Cl)cc1 [4-chlorotoluene]
[1]
Details	mass density [kg/m3]	speed of sound [m/s]
293.15 K	1069 ± 4	1306.4 ± 4
298.15 K	1065 ± 4	1288.2 ± 4
303.15 K	1060 ± 4	1270 ± 3.9
308.15 K	1054 ± 4	1252.1 ± 3.9

CCCCCCCCCO [nonan-1-ol]
[1]
Details	mass density [kg/m3]	speed of sound [m/s]
293.15 K	828 ± 4	1380.5 ± 4
298.15 K	824 ± 4	1364.7 ± 4
303.15 K	821 ± 4	1348.1 ± 4
308.15 K	818 ± 4	1330.5 ± 4

CCCCCCCCCO [nonan-1-ol] + Cc1ccc(Cl)cc1
[2], x2 = 0
Details	mass density [kg/m3]	speed of sound [m/s]
293.15 K	828 ± 4	1380.5 ± 4
298.15 K	824 ± 4	1364.7 ± 4
303.15 K	821 ± 4	1348.1 ± 4
308.15 K	818 ± 4	1330.5 ± 4

CCCCCCCCCO [nonan-1-ol] + Cc1cccc(Cl)c1
[2], x2 = 0
Details	mass density [kg/m3]	speed of sound [m/s]
293.15 K	828 ± 4	1380.5 ± 4
298.15 K	824 ± 4	1364.7 ± 4
303.15 K	821 ± 4	1348.1 ± 4
308.15 K	818 ± 4	1330.5 ± 4

CCCCCCCCCO [nonan-1-ol] + Cc1ccccc1Cl
[2], x2 = 0
Details	mass density [kg/m3]	speed of sound [m/s]
293.15 K	828 ± 4	1380.5 ± 4
298.15 K	824 ± 4	1364.7 ± 4
303.15 K	821 ± 4	1348.1 ± 4
308.15 K	818 ± 4	1330.5 ± 4

— the NIST ThermoML archive (doi:10.1016/j.jct.2017.11.003)
